We go through eight molecules from PubChem BioAssay (NCI).

Test systems include K-562 leukemia; HT29 colon; A549 NSCLC; UACC-257 melanoma; OVCAR-4 ovarian; SNB-19 CNS; HS 578T breast; MDA-MB-231 breast; HCT-116 colon; NCI-H522 lung.
Common to all, as to test: NCI anticancer screen, dose series, 48 h

Each structure is given as a SMILES string. Several values for one entry are separate records, joined by “and”; a condition that tells them apart may be missing. Equal values may be shown once.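 Method: 48-hour compound exposure of cells in 96-well plates, five concentrations, linear interpolation of endpoints. GI50 = concentration required for 50% inhibition of growth. TGI: concentration producing complete growth inhibition.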

With `O=C1/C(=C\c2cccn2Cc2ccccc2)c2ccccc2N1c1c(Cl)cccc1Cl`, the GI50 in the assay with K-562 leukemia was greater than 100 µM; in the assay on HT29 colon, 10.7 µM; in the assay with A549 NSCLC, 8.32 µM; in the assay on UACC-257 melanoma, greater than 100 µM; in the assay on OVCAR-4 ovarian, 0.196 µM; in the assay with SNB-19 CNS it was greater than 100 µM. Further, the GI50 with HS 578T breast is greater than 100 µM; in the assay with MDA-MB-231 breast, 5.83 µM; with HCT-116 colon, 7.36 µM; in the assay on NCI-H522 lung it was greater than 100 µM. The TGI in the assay with K-562 leukemia is greater than 100 µM; in the assay with HT29 colon, greater than 100 µM; in the assay with A549 NSCLC, greater than 100 µM; in the assay on UACC-257 melanoma, greater than 100 µM; in the assay with OVCAR-4 ovarian, greater than 60.4 µM; in the assay with SNB-19 CNS it was greater than 100 µM. For the same molecule, the TGI in the assay with HS 578T breast, in the assay with MDA-MB-231 breast, with HCT-116 colon and in the assay on NCI-H522 lung was greater than 100 µM throughout.
Take `O=C(Nc1cccc(Cl)c1)c1cc2ccccc2cc1O`: the GI50 with K-562 leukemia was 1.38 µM and 0.888 µM; in the assay with HT29 colon it was 45.8 µM and 29.1 µM; with A549 NSCLC, 3.63 µM and 3.31 µM; in the assay with UACC-257 melanoma, 1.03 µM and 2.26 µM; in the assay with OVCAR-4 ovarian, 3.39 µM and 2.32 µM; with SNB-19 CNS, 2.94 µM and 2.37 µM. The GI50 with HS 578T breast is 2.12 µM and 3.42 µM; in the assay on MDA-MB-231 breast it was 4.65 µM and 2.37 µM; in the assay on HCT-116 colon it was 1.68 µM and 0.828 µM; in the assay with NCI-H522 lung it was 1.03 µM and 0.583 µM. Besides, the TGI in the assay on K-562 leukemia was greater than 100 µM; with HT29 colon, greater than 100 µM; in the assay with A549 NSCLC, greater than 100 µM; in the assay with UACC-257 melanoma, 7.31 µM and 6.11 µM; in the assay on OVCAR-4 ovarian it was greater than 100 µM; in the assay with SNB-19 CNS, greater than 100 µM. Besides, the TGI is > 100 µM and 15.4 µM in the assay with MDA-MB-231 breast; > 100 µM and 21.1 µM in the assay with HCT-116 colon; 7.09 µM and 7.92 µM in the assay with NCI-H522 lung.
Regarding `CC(=O)Oc1ccccc1C(=O)N=C1[Se]CCN1C(=O)c1ccccc1OC(C)=O`, the GI50 in the assay on K-562 leukemia is 0.94 µM; in the assay on HT29 colon, 0.637 µM; in the assay on A549 NSCLC, 0.832 µM; in the assay with UACC-257 melanoma, 1.02 µM; in the assay with OVCAR-4 ovarian it was 1.46 µM; in the assay with SNB-19 CNS, 1.23 µM. The GI50 in the assay with HS 578T breast is 0.507 µM; in the assay with MDA-MB-231 breast it was 0.472 µM; in the assay with HCT-116 colon, 0.32 µM; in the assay on NCI-H522 lung, 1.22 µM. Also, the TGI in the assay with K-562 leukemia was greater than 100 µM; with HT29 colon it was 4.46 µM; in the assay with A549 NSCLC, 2.64 µM; in the assay with UACC-257 melanoma, 3.2 µM; in the assay on OVCAR-4 ovarian it was 7.24 µM; in the assay with SNB-19 CNS, 4.31 µM. The TGI came out at 3.02 µM in the assay on HS 578T breast, 3.06 µM in the assay with MDA-MB-231 breast, 1.15 µM in the assay with HCT-116 colon and 2.7 µM in the assay on NCI-H522 lung.
As for `O=C(N/N=C\c1cc(Br)ccc1O)c1ccncc1`, the GI50 with K-562 leukemia is 3.37 µM; in the assay on HT29 colon, 5.7 µM; in the assay with A549 NSCLC, 4.27 µM; in the assay with UACC-257 melanoma, 2.33 µM; with OVCAR-4 ovarian, 0.814 µM; in the assay with SNB-19 CNS it was 5.65 µM. Further, the GI50 in the assay with HS 578T breast was 13.4 µM; in the assay on MDA-MB-231 breast, 5.88 µM; in the assay with HCT-116 colon it was 1.8 µM; in the assay on NCI-H522 lung, 2.17 µM. The TGI was greater than 100 µM in the assay on K-562 leukemia; greater than 100 µM with HT29 colon; greater than 100 µM in the assay with A549 NSCLC; 15.9 µM in the assay with UACC-257 melanoma; 33.3 µM in the assay on OVCAR-4 ovarian; greater than 100 µM with SNB-19 CNS. For the same molecule, the TGI in the assay on HS 578T breast is greater than 100 µM; in the assay with MDA-MB-231 breast it was greater than 100 µM; in the assay with HCT-116 colon, greater than 100 µM; in the assay on NCI-H522 lung it was 19.8 µM.
In the case of `COc1cc2cn3c4ccc(O)cc4[nH]c(=O)c3c2cc1OC`, the GI50 was less than 0.0117 µM in the assay with K-562 leukemia; 0.025 µM in the assay on HT29 colon; 0.042 µM in the assay with A549 NSCLC; less than 0.0212 µM in the assay with UACC-257 melanoma; 0.0594 µM with OVCAR-4 ovarian; 0.0245 µM in the assay with SNB-19 CNS. Moreover, the GI50 is 0.0702 µM in the assay with HS 578T breast, 0.0516 µM with MDA-MB-231 breast, less than 0.01 µM with HCT-116 colon and less than 0.01 µM in the assay with NCI-H522 lung. For the same molecule, the TGI in the assay on K-562 leukemia came to 1.68 µM; with HT29 colon, 0.469 µM; with A549 NSCLC, 1.3 µM; in the assay with UACC-257 melanoma, 0.419 µM; in the assay on OVCAR-4 ovarian it was 2.11 µM; with SNB-19 CNS it was 1.94 µM. Moreover, the TGI is greater than 100 µM in the assay on HS 578T breast, 1.79 µM in the assay with MDA-MB-231 breast, 1.66 µM in the assay on HCT-116 colon and 0.0263 µM in the assay on NCI-H522 lung.
For `Nc1nc(Cl)cc(NCCO)n1`, the TGI in the assay with K-562 leukemia, in the assay on HT29 colon, in the assay on A549 NSCLC, in the assay on UACC-257 melanoma, in the assay with OVCAR-4 ovarian and in the assay on SNB-19 CNS was greater than 100 µM throughout. For the same molecule, the TGI in the assay with HS 578T breast, in the assay with MDA-MB-231 breast, in the assay on HCT-116 colon and with NCI-H522 lung was greater than 100 µM each time.
In the case of `CC(=O)c1c(CBr)n([O-])c2ccccc2[n+]1=O`, the GI50 was 3.45 µM with K-562 leukemia; 8.34 µM with HT29 colon; 23.1 µM in the assay on A549 NSCLC; 16.7 µM in the assay with UACC-257 melanoma; 3.78 µM in the assay with OVCAR-4 ovarian; 18.8 µM in the assay on SNB-19 CNS. The GI50 in the assay with HS 578T breast was 17.4 µM; in the assay with MDA-MB-231 breast, 12.2 µM; in the assay on HCT-116 colon, 1.36 µM; with NCI-H522 lung, 2.93 µM. Besides, the TGI in the assay with K-562 leukemia stood at 12.5 µM; in the assay with HT29 colon, 25.9 µM; in the assay with A549 NSCLC, 57 µM; in the assay with UACC-257 melanoma, 32.9 µM; in the assay with OVCAR-4 ovarian, 13.2 µM; with SNB-19 CNS, 40 µM. Besides, the TGI with HS 578T breast is 48.8 µM; with MDA-MB-231 breast it was 25 µM; in the assay with HCT-116 colon, 2.89 µM; in the assay on NCI-H522 lung it was 8.91 µM.
As to `CCN1C(=O)N(CC)C2C1NC(=S)N2/N=C/C=C/c1cccs1` (configuration not stated), the GI50 is 0.263 µM with K-562 leukemia; 0.352 µM in the assay on HT29 colon; 0.508 µM in the assay with A549 NSCLC; 1.32 µM in the assay with OVCAR-4 ovarian; 0.508 µM in the assay on SNB-19 CNS; 0.281 µM in the assay with HS 578T breast. The GI50 in the assay on MDA-MB-231 breast is 0.648 µM; with HCT-116 colon, 0.404 µM; in the assay with NCI-H522 lung, 0.214 µM. In addition, the TGI with K-562 leukemia, in the assay with HT29 colon, in the assay on A549 NSCLC, in the assay on UACC-257 melanoma, in the assay on OVCAR-4 ovarian and with SNB-19 CNS was greater than 100 µM throughout. Also, the TGI was greater than 100 µM with MDA-MB-231 breast, greater than 100 µM with HCT-116 colon and 1.69 µM with NCI-H522 lung.
